In PubChem BioAssay AID330 (DTP/NCI, 2004) one finds T/C data, which are given here for 21 compounds.

Values joined by “and” are separate entries in the source; they are usually repeats but may differ in a detail not shown here. Equal values may be shown once. Inconclusive results and toxic doses are left out.

This test concerns P388 leukemia ip, CD2F1 mice, survival T/C. Description: NCI In Vivo Anticancer Drug Screen. Data for tumor model P388 Leukemia (intraperitoneal) in CD2F1 (CDF1) mice. Particulars: endpoint: median survival time, higher = longer survival. The essentials:
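Mice carrying the transplanted tumor received test compound or vehicle. Survival was recorded in each group, and the value is the treated-group measurement divided by that of the vehicle-treated control group.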

[1] abbreviates: dose: 60.0 mg/kg/injection, schedule: Q01DX005 (ip), vehicle: saline with Tween-80.
Setting [2] is: dose: 120.0 mg/kg/injection, schedule: Q01DX005 (ip), vehicle: saline with Tween-80.
[3] abbreviates: dose: 240.0 mg/kg/injection, schedule: Q01DX005 (ip), vehicle: saline with Tween-80.
Setting [4] is: dose: 50.0 mg/kg/injection, schedule: Q01DX005 (ip), vehicle: Klucel (hydroxypropylcellulose) (HPC).
The mark [5] stands for this setting: dose: 12.5 mg/kg/injection, schedule: Q01DX009 (ip), vehicle: saline with Tween-80.
Where [6] appears, read: dose: 25.0 mg/kg/injection, schedule: Q01DX009 (ip), vehicle: saline with Tween-80.
[7] abbreviates: dose: 50.0 mg/kg/injection, schedule: Q01DX009 (ip), vehicle: saline with Tween-80.
Setting [8] is: dose: 50.0 mg/kg/injection, schedule: Q01DX009 (ip), vehicle: saline.
[9] abbreviates: dose: 200.0 mg/kg/injection, schedule: Q01DX009 (ip), vehicle: saline.
[10] abbreviates: dose: 100.0 mg/kg/injection, schedule: Q01DX009 (ip), vehicle: saline with Tween-80.
Setting [11] is: dose: 200.0 mg/kg/injection, schedule: Q01DX009 (ip), vehicle: saline with Tween-80.
The mark [12] stands for this setting: dose: 100.0 mg/kg/injection, schedule: Q01DX005 (ip), vehicle: Klucel (hydroxypropylcellulose) (HPC).
[13] abbreviates: dose: 200.0 mg/kg/injection, schedule: Q01DX005 (ip), vehicle: Klucel (hydroxypropylcellulose) (HPC).

For `C=C(C)C12CC(C)C34OC(/C=C/C=C/CCCCC)(OC1C3C1OC1(CO)C(O)C1(O)C(=O)C(C)=CC14)O2` (stereo unspecified), the T/C reads like this: (dose: 0.03 mg/kg/injection, schedule: Q01DX009 (ip), vehicle: distilled water + alcohol) 96 % of control; (dose: 0.06 mg/kg/injection, schedule: Q01DX009 (ip), vehicle: distilled water + alcohol) 102 % of control; (dose: 0.12 mg/kg/injection, schedule: Q01DX009 (ip), vehicle: distilled water + alcohol) 98 % of control; (dose: 0.25 mg/kg/injection, schedule: Q01DX009 (ip), vehicle: distilled water + alcohol) 106 % of control; (dose: 0.5 mg/kg/injection, schedule: Q01DX009 (ip), vehicle: distilled water + alcohol) 98 % of control; (dose: 1.0 mg/kg/injection, schedule: Q01DX009 (ip), vehicle: distilled water + alcohol) 108 % of control.
With `O=P(N1CCCCC1)(N1CC1)N1CC1`, the T/C was 108 % of control (dose: 5.0 mg/kg/injection, schedule: Q04DX003 (ip), vehicle: saline); 195 % of control (dose: 5.56 mg/kg/injection, schedule: Q01DX009 (ip), vehicle: saline); 163 % of control (dose: 6.25 mg/kg/injection, schedule: Q01DX009 (ip), vehicle: saline); 120 % of control (dose: 10.0 mg/kg/injection, schedule: Q04DX003 (ip), vehicle: saline); 227 % of control and 86 % of control (dose: 12.5 mg/kg/injection, schedule: Q01DX009 (ip), vehicle: saline); 220 % of control (dose: 20.0 mg/kg/injection, schedule: Q04DX003 (ip), vehicle: saline). Also, the T/C (dose: 25.0 mg/kg/injection, schedule: Q01DX009 (ip), vehicle: saline) is 90 % of control.
As to `O=C1c2cc([N+](=O)[O-])ccc2-c2c(N=Cc3ccc4c(c3)OCO4)cccc21`, the T/C was 90 % of control under setting [1], 91 % of control under setting [2] and 99 % of control under setting [3].
Consider `O=C(NCCCl)OCC1=C(COC(=O)NCCCl)C(=O)c2ccccc2C1=O`, for which the T/C was 100 % of control and 102 % of control (dose: 12.5 mg/kg/injection, schedule: Q01DX005 (ip), vehicle: saline with Tween-80); 101 % of control and 106 % of control (dose: 25.0 mg/kg/injection, schedule: Q01DX005 (ip), vehicle: saline with Tween-80); 110 % of control (dose: 50.0 mg/kg/injection, schedule: Q01DX005 (ip), vehicle: saline with Tween-80); 113 % of control (dose: 100.0 mg/kg/injection, schedule: Q01DX005 (ip), vehicle: saline with Tween-80).
Take `ClCc1nsc(Cl)n1`: the T/C runs as follows: (dose: 12.5 mg/kg/injection, schedule: Q01DX005 (ip), vehicle: Klucel (hydroxypropylcellulose) (HPC)) 93 % of control; (dose: 25.0 mg/kg/injection, schedule: Q01DX005 (ip), vehicle: Klucel (hydroxypropylcellulose) (HPC)) 98 % of control; under setting [4], 104 % of control and 93 % of control.
For `CN(c1ccccc1)N1C(=O)CC2(CCCC2)C1=O`, the T/C (dose: 100.0 mg/kg/injection, schedule: Q04DX002 (ip), vehicle: Klucel (hydroxypropylcellulose) (HPC)) is 103 % of control; the T/C (dose: 200.0 mg/kg/injection, schedule: Q04DX002 (ip), vehicle: Klucel (hydroxypropylcellulose) (HPC)) is 106 % of control; the T/C (dose: 400.0 mg/kg/injection, schedule: Q04DX002 (ip), vehicle: Klucel (hydroxypropylcellulose) (HPC)) was 94 % of control.
Regarding `N#Cc1ccccc1NN=Nc1ccccc1-c1nc(N)nc(N)n1`, the T/C was 113 % of control (dose: 12.0 mg/kg/injection, schedule: Q04DX003 (ip), vehicle: saline); 113 % of control (dose: 25.0 mg/kg/injection, schedule: Q04DX003 (ip), vehicle: saline); 181 % of control (dose: 50.0 mg/kg/injection, schedule: Q04DX003 (ip), vehicle: saline).
On to `O=c1c2cc3c(=O)n(CO)c(=O)c3cc2c(=O)n1CO`, for which the T/C is, setting by setting: under setting [1], 118 % of control; under setting [2], 120 % of control; under setting [3], 121 % of control.
With `OCc1c(Cl)nc2n1CCS2`, the T/C is 104 % of control (dose: 25.0 mg/kg/injection, schedule: Q01DX001 (ip), vehicle: saline with Tween-80) and 104 % of control (dose: 50.0 mg/kg/injection, schedule: Q01DX001 (ip), vehicle: saline with Tween-80).
Consider `N#CC1=C(Nc2ccccc2Cl)SC(c2c(Cl)cccc2Cl)NC1=O` (stereo unspecified), for which the T/C by setting is: (dose: 60.0 mg/kg/injection, schedule: Q01DX005 (ip), vehicle: Klucel (hydroxypropylcellulose) (HPC)) 90 % of control; (dose: 120.0 mg/kg/injection, schedule: Q01DX005 (ip), vehicle: Klucel (hydroxypropylcellulose) (HPC)) 100 % of control; (dose: 240.0 mg/kg/injection, schedule: Q01DX005 (ip), vehicle: Klucel (hydroxypropylcellulose) (HPC)) 93 % of control.
With `C=C[Se](=C(C(C)=O)C(C)=O)c1ccccc1` (stereo unspecified), the T/C was 97 % of control under setting [5]; 96 % of control under setting [6]; 98 % of control under setting [7]; 92 % of control under setting [8]; 99 % of control (dose: 100.0 mg/kg/injection, schedule: Q01DX009 (ip), vehicle: saline); 92 % of control under setting [9].
For `C/C(=N\NC(=S)N1CCC(C)CC1)c1ncccn1`, the T/C reads like this: (dose: 12.5 mg/kg/injection, schedule: Q04DX003 (ip), vehicle: Klucel (hydroxypropylcellulose) (HPC)) 117 % of control; (dose: 25.0 mg/kg/injection, schedule: Q04DX003 (ip), vehicle: Klucel (hydroxypropylcellulose) (HPC)) 91 % of control.
`Cc1ccn2c([N+](=O)[O-])cnc2c1`: the T/C by setting is: under setting [7], 107 % of control; under setting [10], 104 % of control; under setting [11], 102 % of control.
`O=[N+]([O-])c1ccccc1N=Nc1c(O)sc2ccccc12`: the T/C is 98 % of control under setting [4], 96 % of control under setting [12] and 91 % of control under setting [13].
Turning to `O=C(O)c1cc2cc([N+](=O)[O-])ccc2[se]1`, the T/C was 100 % of control (dose: 12.5 mg/kg/injection, schedule: Q01DX009 (ip), vehicle: suspension in saline); 101 % of control (dose: 25.0 mg/kg/injection, schedule: Q01DX009 (ip), vehicle: suspension in saline); 86 % of control under setting [8]; 102 % of control (dose: 50.0 mg/kg/injection, schedule: Q01DX009 (ip), vehicle: suspension in saline); 100 % of control under setting [9].
`CN(C)c1ccc(N=Nc2ccc3c4c(cccc24)-c2ccccc2-3)cc1`: the T/C is 104 % of control under setting [7], 96 % of control under setting [10] and 115 % of control under setting [11].
For the compound `C[C@H]1C(=O)OCN1C(=O)OCc1ccccc1`, the T/C is 100 % of control under setting [1], 100 % of control under setting [2] and 95 % of control under setting [3].
Consider `Cc1cc(C)n(-c2ccnc(N3CCOCC3)n2)n1`, for which the T/C is 100 % of control (dose: 100.0 mg/kg/injection, schedule: Q01DX001 (ip), vehicle: saline); 96 % of control (dose: 200.0 mg/kg/injection, schedule: Q01DX001 (ip), vehicle: saline); 97 % of control (dose: 400.0 mg/kg/injection, schedule: Q01DX001 (ip), vehicle: saline).
Take `Cn1c(=O)oc2cc(N)c(Br)cc21`: the T/C by setting is: under setting [4], 90 % of control; under setting [12], 92 % of control; under setting [13], 94 % of control.
As for `OCCCCc1ccccc1`, the T/C was 104 % of control (dose: 100.0 mg/kg/injection, schedule: Q01DX001 (ip), vehicle: saline with Tween-80); 100 % of control (dose: 200.0 mg/kg/injection, schedule: Q01DX001 (ip), vehicle: saline with Tween-80); 100 % of control (dose: 400.0 mg/kg/injection, schedule: Q01DX001 (ip), vehicle: saline with Tween-80).
In the case of `COc1cc2c(c(OC)c1OC)C(=O)/C(=C\c1ccccc1)O2`, the T/C is 105 % of control (dose: 3.13 mg/kg/injection, schedule: Q01DX009 (ip), vehicle: saline with Tween-80); 101 % of control and 102 % of control and 95 % of control (dose: 6.25 mg/kg/injection, schedule: Q01DX009 (ip), vehicle: saline with Tween-80); 100 % of control and 105 % of control and 114 % of control under setting [5]; 105 % of control and 121 % of control and 93 % of control under setting [6]; 118 % of control and 96 % of control under setting [7].
